Results taken from the supplement of paper PMC10307832.

Key:
Test in all cases: relative viability (nuclei count vs DMSO), 5 days (fraction); higher = more cells survive
[1] = compound: CC(C)N(CCCNC(=O)Nc1ccc(C(C)(C)C)cc1)C[C@H]1O[C@@H](n2ccc3c(N)ncnc32)[C@H](O)[C@@H]1O + COc1cccc2cc(-c3nc([C@H]4CC[C@H](C(=O)O)CC4)n4ncnc(N)c34)[nH]c12 [OSI-027] (partner 0.5 µM)
Method in brief: (§1)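 Dosing by pin tool came one day after lung cancer cell lines were seeded in 1536-well plates, using either one drug or a fixed anchor-drug dose plus five library-drug doses (not always all listed) in √10 steps. After 5 days, nuclei were counted on 4× images. Relative viability is treated-well nuclei count divided by vehicle-well nuclei count, and values are medians of duplicate plates.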

[2] = compound: CC(C)=CC[C@@H](O)C1=CC(=O)c2c(O)ccc(O)c2C1=O [Shikonin] + Nc1nc2[nH]cc(CCc3ccc(C(=O)N[C@@H](CCC(=O)O)C(=O)O)cc3)c2c(=O)[nH]1 [Pemetrexed] (partner 0.2 µM)
Method in brief: as §1

[3] = compound: CC(C)=CC[C@@H](O)C1=CC(=O)c2c(O)ccc(O)c2C1=O [Shikonin] + C[C@@H](Oc1cc(-c2cnn(C3CCNCC3)c2)cnc1N)c1c(Cl)ccc(F)c1Cl [Crizotinib] (partner 1 µM)
Method in brief: as §1

[4] = compound: CC(C)=CC[C@@H](O)C1=CC(=O)c2c(O)ccc(O)c2C1=O [Shikonin] + CCNC(=O)c1noc(-c2cc(C(C)C)c(O)cc2O)c1-c1ccc(CN2CCOCC2)cc1 [Luminespib] (partner 0.01 µM)
Method in brief: as §1

Row | Cell Line | relative viability ([1]; first compound 0.08 µM) | relative viability ([1]; first compound 0.253 µM) | relative viability ([1]; first compound 0.8 µM) | relative viability ([1]; first compound 2.53 µM) | relative viability ([1]; first compound 8 µM) | relative viability ([2]; first compound 0.01 µM) | relative viability ([2]; first compound 0.1 µM) | relative viability ([2]; first compound 0.3162 µM) | relative viability ([2]; first compound 1 µM) | relative viability ([3]; first compound 0.1 µM) | relative viability ([3]; first compound 0.3162 µM) | relative viability ([3]; first compound 1 µM) | relative viability ([4]; first compound 0.01 µM) | relative viability ([4]; first compound 0.1 µM) | relative viability ([4]; first compound 0.3162 µM) | relative viability ([4]; first compound 1 µM) | relative viability ([3]; first compound 0.01 µM)
1 | NCI-H520 | 0.181 | 0.248 | 0.235 | 0.348 | 0.267 | 0.801 | 0.784 | 0.689 | 0.604 | 0.878 | 0.608 | 0.842 | 0.253 | 0.216 | 0.21 | 0.207 | 
2 | NCI-H596 | 0.672 |  | 0.507 | 0.829 | 0.748 | 0.502 | 0.536 | 0.414 | 0.475 | 0.884 | 0.96 | 0.985 | 1.14 | 1.22 | 1.16 | 1.13 | 1.1
3 | NCI-H647 | 0.511 | 0.579 |  | 0.742 | 0.586 | 0.194 | 0.174 | 0.183 | 0.156 | 1.29 | 0.931 | 1.01 | 0.169 | 0.142 | 0.147 | 0.159 | 1.13
4 | NCI-H650 | 0.485 | 0.63 | 0.602 | 0.468 | 0.504 | 0.87 | 0.987 | 1.13 | 0.857 |  | 0.643 | 0.804 | 0.678 | 0.822 | 0.79 | 0.61 | 0.818
5 | NCI-H661 | 0.719 | 0.775 | 0.68 | 0.714 | 0.683 | 0.944 | 1.02 | 0.957 | 0.729 | 1.11 | 0.967 | 0.957 | 0.951 | 1.06 | 0.932 | 0.858 | 1.24
6 | NCI-H838 | 0.359 | 0.408 | 0.367 | 0.388 | 0.476 | 0.234 | 0.24 | 0.243 | 0.258 | 0.967 | 0.898 | 0.99 | 0.369 | 0.237 | 0.317 | 0.258 | 0.898
7 | NCI-H1355 | 0.375 | 0.473 | 0.374 | 0.472 | 0.428 | 1.13 | 1.15 | 1.02 | 1.06 | 1.31 | 1.19 | 1.12 | 0.724 | 0.795 | 0.79 | 0.714 | 1.16
8 | NCI-H1437 | 0.804 | 0.831 | 0.81 | 0.891 | 0.867 | 0.332 | 0.37 | 0.291 | 0.354 | 1.17 | 0.883 | 0.993 | 1.17 | 1.18 | 1.1 | 1.1 | 1.02
9 | NCI-H1563 | 0.742 | 0.782 | 0.73 | 0.713 | 0.799 | 0.769 | 0.846 | 0.897 | 0.845 | 0.845 | 0.751 | 0.622 | 0.575 | 0.465 | 0.542 | 0.453 | 0.891
10 | NCI-H1650 | 0.567 | 0.696 |  | 0.744 | 0.703 | 0.35 | 0.403 | 0.331 | 0.274 | 0.993 | 1.06 | 0.691 | 0.195 | 0.198 | 0.175 | 0.193 | 1.06
11 | NCI-H1651 | 0.671 | 0.556 | 0.653 | 0.811 | 0.77 | 0.631 | 0.748 | 0.606 | 0.652 | 0.831 | 0.883 | 0.876 | 0.914 | 0.821 | 0.714 | 0.984 | 0.857
12 | NCI-H1666 | 0.745 | 1.04 | 0.611 | 0.829 | 0.755 | 0.869 | 0.854 | 0.916 | 0.861 | 0.971 | 1.12 | 0.744 | 0.986 | 1.08 | 0.932 | 1.04 | 1.12
13 | NCI-H1734 | 0.563 | 0.612 | 0.627 | 0.564 | 0.6 | 0.413 | 0.479 | 0.434 | 0.382 | 0.769 | 0.717 | 0.632 | 0.173 | 0.199 | 0.216 | 0.131 | 0.665
14 | NCI-H1755 | 0.801 | 0.753 | 0.672 | 0.717 | 0.667 | 0.453 | 0.409 | 0.477 | 0.417 | 1.09 | 0.88 | 0.887 | 0.428 | 0.439 | 0.576 | 0.378 | 0.972
15 | NCI-H1792 | 0.693 | 0.702 | 0.716 | 0.586 | 0.72 | 0.819 | 0.82 | 0.689 | 0.958 | 0.796 | 1.03 | 1.14 | 0.554 | 0.361 | 0.371 | 0.544 | 1.1
16 | NCI-H1915 | 0.58 | 0.732 | 0.651 | 0.645 | 0.624 | 0.442 | 0.684 | 0.517 | 0.449 | 1.1 | 0.915 | 1.07 | 1 | 0.758 | 0.849 | 0.85 | 0.904

Row | Cell Line | relative viability ([1]; first compound 0.08 µM) | relative viability ([1]; first compound 0.253 µM) | relative viability ([1]; first compound 0.8 µM) | relative viability ([1]; first compound 2.53 µM) | relative viability ([1]; first compound 8 µM) | relative viability ([2]; first compound 0.01 µM) | relative viability ([2]; first compound 0.1 µM) | relative viability ([2]; first compound 0.3162 µM) | relative viability ([2]; first compound 1 µM) | relative viability ([3]; first compound 0.1 µM) | relative viability ([3]; first compound 0.3162 µM) | relative viability ([3]; first compound 1 µM) | relative viability ([4]; first compound 0.01 µM) | relative viability ([4]; first compound 0.1 µM) | relative viability ([4]; first compound 0.3162 µM) | relative viability ([4]; first compound 1 µM) | relative viability ([3]; first compound 0.01 µM)
17 | NCI-H1944 | 0.413 | 0.41 | 0.401 | 0.452 | 0.405 | 0.625 | 0.719 | 0.676 | 0.572 | 1.18 | 1.24 | 1.22 | 0.704 | 0.613 | 0.889 | 0.8 | 1.12
18 | NCI-H1975 | 0.729 | 0.672 | 0.403 | 0.577 | 0.598 | 0.315 | 0.298 | 0.286 | 0.283 | 1.18 | 1.09 | 0.959 | 0.178 | 0.27 | 0.248 | 0.167 | 1.07
19 | NCI-H1993 | 0.521 |  |  | 0.578 | 0.56 | 0.561 | 0.619 | 0.557 | 0.627 | 0.922 | 0.866 | 0.93 | 1.08 | 0.834 | 0.834 | 0.531 | 
20 | NCI-H2009 | 0.641 | 0.722 | 0.702 | 0.599 | 0.587 | 1.11 | 1.06 | 1.09 | 1.05 | 1.2 | 0.972 | 0.45 | 1.1 | 1.16 | 1 | 0.876 | 1.07
21 | NCI-H2023 | 0.375 | 0.501 | 0.414 | 0.392 | 0.353 | 0.239 | 0.235 | 0.221 | 0.262 | 0.583 | 0.667 | 0.604 | 0.969 | 0.851 | 0.982 | 0.59 | 0.767
22 | NCI-H2085 | 0.847 | 0.621 | 0.705 | 0.757 | 1 | 0.88 | 0.93 | 0.868 | 0.872 | 0.857 | 0.881 | 0.585 | 0.443 | 0.471 | 0.336 | 0.379 | 0.874
23 | NCI-H2087 | 0.443 | 0.707 | 0.402 | 0.653 | 0.586 | 0.675 | 0.706 | 0.626 | 0.69 | 0.781 | 0.923 | 0.824 | 0.185 | 0.167 | 0.156 | 0.153 | 1.07
24 | NCI-H2126 | 0.627 | 0.77 | 0.734 | 0.715 | 0.672 | 0.758 | 0.716 | 0.777 | 0.656 | 1.21 | 1.1 | 1.04 | 1.01 | 1.05 | 0.966 | 0.891 | 1.08
25 | NCI-H2170 | 0.675 | 0.7 | 0.669 | 0.709 | 0.748 | 0.25 | 0.284 | 0.282 | 0.272 | 1.07 | 1.29 | 1.25 | 0.8 | 0.703 | 0.632 | 0.562 | 1.5
26 | NCI-H2228 | 0.614 | 0.632 | 0.526 | 0.623 | 0.78 | 0.314 | 0.355 | 0.38 | 0.355 | 0.532 | 0.414 | 0.421 | 0.153 | 0.177 | 0.146 | 0.163 | 0.448
27 | NCI-H2347 | 0.459 | 0.427 | 0.413 | 0.574 | 0.509 | 0.471 | 0.479 | 0.402 | 0.44 | 0.0168 | 0.795 | 0.715 | 0.573 | 0.477 | 0.471 | 0.526 | 0.69
28 | NCI-H2405 | 0.626 | 0.678 | 0.684 | 0.668 | 0.592 | 1.05 | 1.31 | 1.06 | 1.13 | 0.819 | 0.935 | 0.852 | 0.698 | 0.745 | 0.665 | 0.644 | 0.854
29 | NCI-H3122 | 0.897 | 1.02 | 0.925 | 0.926 | 0.722 | 0.215 | 0.219 | 0.209 | 0.209 | 0.271 | 0.278 | 0.248 | 0.0973 | 0.0926 | 0.0903 | 0.0968 | 0.288
30 | PC-3 [JPC-3] | 0.801 | 0.867 | 0.718 | 0.779 | 0.721 | 1.21 | 1.44 | 1.05 | 1.63 | 1.14 | 1.03 | 0.986 | 0.727 | 0.677 | 0.665 | 0.622 | 1.03
31 | PC-14 | 0.826 | 0.802 | 0.786 | 0.872 | 0.745 | 0.15 | 0.137 | 0.125 | 0.135 | 1.02 | 0.841 | 1.03 | 0.115 | 0.12 | 0.135 | 0.151 | 0.984
